Experimental data: US20040162221A1, “Pyrazole derivatives and herbicides containing the same” (IDEMITSU KOSAN CO., LTD., priority 1998, published 2004)

Tests used:
velvetleaf [1] = experiment: Upland pre-emergence treatment test, velvetleaf; assay type: in vivo, velvetleaf (Abutilon theophrasti); conditions: pre-emergence soil surface spray, 80 g/ha, 20th day after treatment, greenhouse; further: ranges in brackets are in %
Text: (§1) 97 Parts by weight of talc (trade name: Zeaklite, supplied by Zeaklite Industry) as a carrier, 1.5 parts by weight of alkylarylsulfonic acid salt (trade name: Neoplex, supplied by Kao-Atlas K.K.) as a surfactant and 1.5 parts by weight of a nonionic and anionic surfactant (trade names Sorpol 800A, supplied by Toho Chemical Co., Ltd.) were uniformly pulverized and mixed to prepare a carrier for a wettable powder.
(§2) 90 Parts by weight of the above carrier for a wettable powder and 10 parts by weight of one of the compounds of the present invention were uniformly pulverized and mixed to obtain herbicides. Further, in Comparative Herbicide Examples, comparative herbicides were also prepared from the following compounds (A) and (B) in the same manner.
(§3) Herbicidal efficacy and phytotoxicity to crops were determined on the basis of the ratio of remaining plant weight to plant weight in non-treated plot=(remaining plant weight in treated plot/plant weight in non-treated-plot)×100. The ratings were applied to the following biological tests.
(§4) Seeds of weeds such as velvetleaf, common lambsquaters, redroot pigweed, common ragweed, green foxtail and large crabgrass and seeds of corn were sown in 1/5,000-are Wagner pots filled with upland soil, and covered with upland soil. Then, a predetermined amount of the herbicide prepared in the above (1) was suspended in water, and the suspension was uniformly sprayed onto the soil surface at a rate of 2,000 liters/hectare. Then, the seeds were grown in a greenhouse, and on the 20th day after the treatment, the herbicide was evaluated for herbicidal efficacy and phytotoxicity to corn on the basis of the ratings shown in (2).

common lambsquaters = experiment: Upland pre-emergence treatment test, common lambsquaters; assay type: in vivo, common lambsquaters (Chenopodium album); conditions: pre-emergence soil surface spray, 80 g/ha, 20th day after treatment, greenhouse; further: ranges in brackets are in %
Text: as §1, §2, §3, §4

redroot pigweed [2] = experiment: Upland pre-emergence treatment test, redroot pigweed; assay type: in vivo, redroot pigweed (Amaranthus retroflexus); conditions: for Herbicidal Efficacy CC = Rough Pigweed: pre-emergence soil surface spray, 80 g/ha, 20th day after treatment, greenhouse; on Herbicidal Efficacy CC = Rough Pigweed: ranges in brackets are in %
Text: as §1, §2, §3, §4

common ragweed [3] = experiment: Upland pre-emergence treatment test, common ragweed; assay type: in vivo, common ragweed (Ambrosia artemisilfolia); conditions: pre-emergence soil surface spray, 80 g/ha, 20th day after treatment, greenhouse; further: ranges in brackets are in %
Text: as §1, §2, §3, §4

green foxtail [4] = experiment: Upland pre-emergence treatment test, green foxtail; assay type: in vivo, green foxtail (Setaria viridis); conditions: pre-emergence soil surface spray, 80 g/ha, 20th day after treatment, greenhouse; further: ranges in brackets are in %
Text: as §1, §2, §3, §4

large crabgrass [5] = experiment: Upland pre-emergence treatment test, large crabgrass; assay type: in vivo; conditions: pre-emergence soil surface spray, 80 g/ha, 20th day after treatment, greenhouse; further: ranges in brackets are in %
Text: as §1, §2, §3, §4

corn [6] = experiment: Upland pre-emergence treatment test, phytotoxicity to corn; assay type: in vivo; conditions: pre-emergence soil surface spray, 80 g/ha, 20th day after treatment, greenhouse; further: ranges in brackets are in %
Text: as §1, §2, §3, §4

velvetleaf [7] = experiment: Upland post-emergence treatment test, velvetleaf; assay type: in vivo, velvetleaf (Abutilon theophrasti); conditions: post-emergence spray at 3-4 leaf stage, 80 g/ha, 30th day after treatment, greenhouse; further: ranges in brackets are in %
Text: as §1, §2, §3
(§5) Seeds of weeds velvetleaf, redroot pigweed, common ragweed, green foxtail and large crabgrass and seeds of corn were sown in 1/5,000-are Wagner pots filled with upland soil, and covered with upland soil. The seeds were grown in a greenhouse, and at the stage of 3˜4 leaves of these plants, a predetermined amount of the herbicide prepared in the above (1) was suspended in water, and the suspension was uniformly sprayed onto leaf and stalk portions at a rate of 2,000 liters/hectare. Then, the plants were grown in the greenhouse, and on the 30th day after the treatment, the herbicide was evaluated for herbicidal efficacy and phytotoxicity to the corn on the basis of the ratings shown in (2).

redroot pigweed [8] = experiment: Upland post-emergence treatment test, redroot pigweed; assay type: in vivo, redroot pigweed (Amaranthus retroflexus); conditions: for Herbicidal Efficacy CC = Redroot Pigweed: post-emergence spray at 3-4 leaf stage, 80 g/ha, 30th day after treatment, greenhouse; on Herbicidal Efficacy CC = Redroot Pigweed: ranges in brackets are in %
Text: as §1, §2, §3, §5

common ragweed [9] = experiment: Upland post-emergence treatment test, common ragweed; assay type: in vivo, common ragweed (Ambrosia artemisilfolia); conditions: post-emergence spray at 3-4 leaf stage, 80 g/ha, 30th day after treatment, greenhouse; further: ranges in brackets are in %
Text: as §1, §2, §3, §5

green foxtail [10] = experiment: Upland post-emergence treatment test, green foxtail; assay type: in vivo, green foxtail (Setaria viridis); conditions: post-emergence spray at 3-4 leaf stage, 80 g/ha, 30th day after treatment, greenhouse; further: ranges in brackets are in %
Text: as §1, §2, §3, §5

large crabgrass [11] = experiment: Upland post-emergence treatment test, large crabgrass; assay type: in vivo; conditions: post-emergence spray at 3-4 leaf stage, 80 g/ha, 30th day after treatment, greenhouse; further: ranges in brackets are in %
Text: as §1, §2, §3, §5

corn [12] = experiment: Upland post-emergence treatment test, phytotoxicity to corn; assay type: in vivo; conditions: post-emergence spray at 3-4 leaf stage, 80 g/ha, 30th day after treatment, greenhouse; further: ranges in brackets are in %
Text: as §1, §2, §3, §5

Cc1c(C(=O)c2cnn(C)c2OC(=O)c2ccccc2)ccc2c1C(C)(C)CS2(=O)=O [Compound 39]
Herbicidal Efficacy AA = Velvetleaf (velvetleaf [1]): 5 (0)
Herbicidal Efficacy BB = Common lambsquaters (common lambsquaters): 5 (0)
Herbicidal Efficacy CC = Rough Pigweed (redroot pigweed [2]): 5 (0)
Herbicidal Efficacy DD = Common ragweed (common ragweed [3]): 5 (0)
Herbicidal Efficacy EE = Green foxtail (green foxtail [4]): 5 (0)
Herbicidal Efficacy FF = Large crabgrass (large crabgrass [5]): 5 (0)
Phytotoxicity Corn (corn [6]): − (100)
Herbicidal Efficacy AA = Velvetleaf (velvetleaf [7]): 5 (0)
Herbicidal Efficacy CC = Redroot Pigweed (redroot pigweed [8]): 5 (0)
Herbicidal Efficacy DD = Common ragweed (common ragweed [9]): 5 (0)
Herbicidal Efficacy EE = Green foxtail (green foxtail [10]): 5 (0)
Herbicidal Efficacy FF = Large crabgrass (large crabgrass [11]): 5 (0)
Phytotoxicity Corn (corn [12]): − (100)

Cc1c(C(=O)c2cnn(C)c2OCC(=O)c2ccccc2)ccc2c1C(C)(C)CS2(=O)=O [Compound 49, 5-(1′-methyl-5′-phenacyloxypyrazol-4′-yl)carbonyl-3,3,4-trimethyl-2,3-dihydrobenzothiophene-1,1-dioxide]
Herbicidal Efficacy AA = Velvetleaf (velvetleaf [1]): 5 (0)
Herbicidal Efficacy BB = Common lambsquaters (common lambsquaters): 5 (0)
Herbicidal Efficacy CC = Rough Pigweed (redroot pigweed [2]): 5 (0)
Herbicidal Efficacy DD = Common ragweed (common ragweed [3]): 5 (0)
Herbicidal Efficacy EE = Green foxtail (green foxtail [4]): 5 (0)
Herbicidal Efficacy FF = Large crabgrass (large crabgrass [5]): 5 (0)
Phytotoxicity Corn (corn [6]): − (100)
Herbicidal Efficacy AA = Velvetleaf (velvetleaf [7]): 5 (0)
Herbicidal Efficacy CC = Redroot Pigweed (redroot pigweed [8]): 5 (0)
Herbicidal Efficacy DD = Common ragweed (common ragweed [9]): 5 (0)
Herbicidal Efficacy EE = Green foxtail (green foxtail [10]): 5 (0)
Herbicidal Efficacy FF = Large crabgrass (large crabgrass [11]): 5 (0)
Phytotoxicity Corn (corn [12]): − (100)

CCN(CC)CC.Cc1c(C(=O)c2cnn(C)c2O)ccc2c1C(C)(C)CS2(=O)=O [Compound 50, 5-(1′-methyl-5′-hydroxypyrazol-4′-yl)carbonyl-3,3,4-trimethyl-2,3-dihydrobenzothiophene-1,1-dioxide triethylamine salt]
Herbicidal Efficacy AA = Velvetleaf (velvetleaf [1]): 5 (0)
Herbicidal Efficacy BB = Common lambsquaters (common lambsquaters): 5 (0)
Herbicidal Efficacy CC = Rough Pigweed (redroot pigweed [2]): 5 (0)
Herbicidal Efficacy DD = Common ragweed (common ragweed [3]): 4 (1-20)
Herbicidal Efficacy EE = Green foxtail (green foxtail [4]): 5 (0)
Herbicidal Efficacy FF = Large crabgrass (large crabgrass [5]): 5 (0)
Phytotoxicity Corn (corn [6]): − (100)
Herbicidal Efficacy AA = Velvetleaf (velvetleaf [7]): 5 (0)
Herbicidal Efficacy CC = Redroot Pigweed (redroot pigweed [8]): 5 (0)
Herbicidal Efficacy DD = Common ragweed (common ragweed [9]): 5 (0)
Herbicidal Efficacy EE = Green foxtail (green foxtail [10]): 5 (0)
Herbicidal Efficacy FF = Large crabgrass (large crabgrass [11]): 5 (0)
Phytotoxicity Corn (corn [12]): − (100)

Cc1c(C(=O)c2cnn(C)c2O)ccc2c1C(C)(C)CS2(=O)=O.[Na] [Compound 52, 5-(1′-methyl-5′-hydroxypyrazol-4′-yl)carbonyl-3,3,4-trimethyl-2,3-dihdyrobenzothiophene-1,1-dioxide sodium salt]
Herbicidal Efficacy AA = Velvetleaf (velvetleaf [1]): 4 (1-20)
Herbicidal Efficacy BB = Common lambsquaters (common lambsquaters): 5 (0)
Herbicidal Efficacy CC = Rough Pigweed (redroot pigweed [2]): 5 (0)
Herbicidal Efficacy DD = Common ragweed (common ragweed [3]): 4 (1-20)
Herbicidal Efficacy EE = Green foxtail (green foxtail [4]): 4 (1-20)
Herbicidal Efficacy FF = Large crabgrass (large crabgrass [5]): 5 (0)
Phytotoxicity Corn (corn [6]): − (100)
Herbicidal Efficacy AA = Velvetleaf (velvetleaf [7]): 5 (0)
Herbicidal Efficacy CC = Redroot Pigweed (redroot pigweed [8]): 5 (0)
Herbicidal Efficacy DD = Common ragweed (common ragweed [9]): 5 (0)
Herbicidal Efficacy EE = Green foxtail (green foxtail [10]): 5 (0)
Herbicidal Efficacy FF = Large crabgrass (large crabgrass [11]): 5 (0)
Phytotoxicity Corn (corn [12]): − (100)

CCCS(=O)(=O)Oc1c(C(=O)c2cc(C)c3c(c2C)C(C)(C)CS3(=O)=O)cnn1CC [Compound (A), reference compound]
Herbicidal Efficacy AA = Velvetleaf (velvetleaf [1]): 2 (41-60)
Herbicidal Efficacy BB = Common lambsquaters (common lambsquaters): 2 (41-60)
Herbicidal Efficacy CC = Rough Pigweed (redroot pigweed [2]): 0 (81-100)
herbicidal efficacy against redroot pigweed (in words) (redroot pigweed [2]; pre-emergence, text summary of Table 7): clearly poor
Herbicidal Efficacy DD = Common ragweed (common ragweed [3]): 1 (61-80)
Herbicidal Efficacy EE = Green foxtail (green foxtail [4]): 1 (61-80)
Herbicidal Efficacy FF = Large crabgrass (large crabgrass [5]): 1 (61-80)
Phytotoxicity Corn (corn [6]): − (100)
Herbicidal Efficacy AA = Velvetleaf (velvetleaf [7]): 2 (41-60)
Herbicidal Efficacy CC = Redroot Pigweed (redroot pigweed [8]): 0 (81-100)
herbicidal efficacy against redroot pigweed (in words) (redroot pigweed [8]; post-emergence, Tables 8 and 9): clearly poor
Herbicidal Efficacy DD = Common ragweed (common ragweed [9]): 2 (41-60)
Herbicidal Efficacy EE = Green foxtail (green foxtail [10]): 1 (61-80)
Herbicidal Efficacy FF = Large crabgrass (large crabgrass [11]): 1 (61-80)
Phytotoxicity Corn (corn [12]): − (100)
